Laboratory results taken from patent US8969325B2, “TRPV1 antagonists” (AbbVie Inc., priority 2011, dated 2015).

Key:
[1] = biological target: T1, human TRPV1 (Homo sapiens (Human), UniProt Q8NER1); assay: Capsaicin Activation Assay (intracellular Ca2+, FLIPR); type: cell-based; settings: recombinant HEK293 cells expressing hTRPV1, 50 nM capsaicin
Method in brief: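 Ca2+ fluorescence was recorded by FLIPR every 1 to 5 seconds in HEK293 cells, clonally selected for stable human TRPV1 expression and plated one day ahead. Test compounds came as serial dilutions of 10 mM DMSO stocks.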

[2] = biological target: T1, human TRPV1; assay: Acid Activation Assay (pH 5.0, intracellular Ca2+, FLIPR); type: cell-based; settings: percentage of the maximal pH 5.0-induced response remaining; recombinant HEK293 hTRPV1 cells; maximum concentration tested 37.5 μM
Method in brief: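 Readout: peak [Ca2+]i fluorescence over baseline on FLIPR, expressed as percentage remaining of the maximal pH 5.0-evoked signal. Stable hTRPV1-HEK293 cells with Calcium-4 dye received compound (12 half-log concentrations, maximum 37.5 μM) 3 min before acidic pH 5.0 buffer.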

T1 sequence (Q8NER1 whole entry): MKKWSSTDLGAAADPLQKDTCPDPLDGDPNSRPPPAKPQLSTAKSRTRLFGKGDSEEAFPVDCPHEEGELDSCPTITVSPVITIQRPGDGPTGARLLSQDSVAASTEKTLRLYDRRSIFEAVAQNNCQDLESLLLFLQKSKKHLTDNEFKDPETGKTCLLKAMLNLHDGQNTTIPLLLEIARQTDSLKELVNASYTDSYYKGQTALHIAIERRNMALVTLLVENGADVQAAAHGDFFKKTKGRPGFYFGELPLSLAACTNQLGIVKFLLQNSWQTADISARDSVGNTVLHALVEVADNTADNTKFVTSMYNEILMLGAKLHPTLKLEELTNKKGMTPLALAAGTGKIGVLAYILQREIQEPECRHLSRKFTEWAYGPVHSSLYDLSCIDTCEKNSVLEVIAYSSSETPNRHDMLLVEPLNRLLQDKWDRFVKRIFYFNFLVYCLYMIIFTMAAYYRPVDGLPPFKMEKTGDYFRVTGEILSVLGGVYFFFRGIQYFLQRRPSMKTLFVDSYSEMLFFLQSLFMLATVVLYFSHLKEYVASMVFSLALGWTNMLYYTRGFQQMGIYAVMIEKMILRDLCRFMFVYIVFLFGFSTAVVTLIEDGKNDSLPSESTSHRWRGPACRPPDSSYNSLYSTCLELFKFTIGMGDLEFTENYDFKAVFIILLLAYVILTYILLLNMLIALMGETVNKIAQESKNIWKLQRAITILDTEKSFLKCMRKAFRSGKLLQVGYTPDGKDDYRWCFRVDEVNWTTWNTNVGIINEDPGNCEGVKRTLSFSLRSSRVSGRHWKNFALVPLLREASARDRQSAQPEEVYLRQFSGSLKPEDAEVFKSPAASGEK

Row | Structure (SMILES) | IC50 [1] | human TRPV1 H^+ (max % remain) [2]
1 | CCC1(CC)C[C@@H](NC(=O)Nc2ccc3c(c2)NC(=O)CO3)c2ccccc2O1 [Example 102, 1-[(4R)-2,2-diethyl-3,4-dihydro-2H-chromen-4-yl]-3-(3-oxo-3,4-dihydro-2H-1,4-benzoxazin-6-yl)urea] | 44 nM | 99%
2 | CC1(C)C[C@@H](NC(=O)Nc2ccc3c(c2)NC(=O)CO3)c2ccc(C(F)(F)F)cc2O1 [Example 106, 1-[(4R)-2,2-dimethyl-7-(trifluoromethyl)-3,4-dihydro-2H-chromen-4-yl]-3-(3-oxo-3,4-dihydro-2H-1,4-benzoxazin-6-yl)urea] | 94 nM | 98%
3 | CCCC1(CCC)C[C@@H](NC(=O)Nc2ccc3c(c2)NC(=O)CO3)c2cc(F)ccc2O1 [Example 107, 1-[(4R)-6-fluoro-2,2-dipropyl-3,4-dihydro-2H-chromen-4-yl]-3-(3-oxo-3,4-dihydro-2H-1,4-benzoxazin-6-yl)urea] | 400 nM | 113%
4 | O=C1COc2ccc(NC(=O)N[C@@H]3CC4(CCC4)Oc4ccc(F)cc43)cc2N1 [Example 108, 1-[(4R)-6-fluoro-3,4-dihydrospiro[chromene-2,1′-cyclobutan]-4-yl]-3-(3-oxo-3,4-dihydro-2H-1,4-benzoxazin-6-yl)urea] | 240 nM | 104%
5 | CCC1(CC)C[C@@H](NC(=O)Nc2ccc3c(c2)NC(=O)CO3)c2cc(F)ccc2O1 [Example 109, 1-[(4R)-2,2-diethyl-6-fluoro-3,4-dihydro-2H-chromen-4-yl]-3-(3-oxo-3,4-dihydro-2H-1,4-benzoxazin-6-yl)urea] | 130 nM | 92%
6 | CCC1(CC)C[C@@H](NC(=O)Nc2ccc3c(c2)NC(=O)CO3)c2ccc(OC(F)(F)F)cc2O1 [Example 111, 1-[(4R)-2,2-diethyl-7-(trifluoromethoxy)-3,4-dihydro-2H-chromen-4-yl]-3-(3-oxo-3,4-dihydro-2H-1,4-benzoxazin-6-yl)urea] | 190 nM | 71%
7 | CC1(C)C[C@@H](NC(=O)Nc2ccc3c(c2)NC(=O)CO3)c2ccccc2O1 [Example 112, 1-[(4R)-2,2-dimethyl-3,4-dihydro-2H-chromen-4-yl]-3-(3-oxo-3,4-dihydro-2H-1,4-benzoxazin-6-yl)urea] | 440 nM | 101%
8 | CC1(C)C[C@@H](NC(=O)Nc2ccc3c(c2)NC(=O)CO3)c2cc(F)ccc2O1 [Example 113, 1-[(4R)-6-fluoro-2,2-dimethyl-3,4-dihydro-2H-chromen-4-yl]-3-(3-oxo-3,4-dihydro-2H-1,4-benzoxazin-6-yl)urea] | 770 nM | 102%
9 | CC1(C)C[C@@H](NC(=O)Nc2ccc3c(c2)NC(=O)CO3)c2ccc(Cl)cc2O1 [Example 114, 1-[(4R)-7-chloro-2,2-dimethyl-3,4-dihydro-2H-chromen-4-yl]-3-(3-oxo-3,4-dihydro-2H-1,4-benzoxazin-6-yl)urea] | 56 nM | 99%
10 | O=C1COc2ccc(NC(=O)N[C@@H]3CCOc4cc(OC(F)(F)F)ccc43)cc2N1 [Example 115, 1-(3-oxo-3,4-dihydro-2H-1,4-benzoxazin-6-yl)-3-[(4R)-7-(trifluoromethoxy)-3,4-dihydro-2H-chromen-4-yl]urea] | > 38000 nM | 91%
11 | O=C1COc2ccc(NC(=O)N[C@@H]3CCOc4ccc(F)cc43)cc2N1 [Example 118, 1-[(4R)-6-fluoro-3,4-dihydro-2H-chromen-4-yl]-3-(3-oxo-3,4-dihydro-2H-1,4-benzoxazin-6-yl)urea] | > 38000 nM | 101%
12 | O=C1COc2ccc(NC(=O)N[C@@H]3CCc4cc(Cl)ccc43)cc2N1 [Example 119, 1-[(1R)-5-chloro-2,3-dihydro-1H-inden-1-yl]-3-(3-oxo-3,4-dihydro-2H-1,4-benzoxazin-6-yl)urea] | 170 nM | 110%
13 | O=C1COc2ccc(NC(=O)N[C@@H]3CCOc4c3cccc4C(F)(F)F)cc2N1 [Example 120, 1-(3-oxo-3,4-dihydro-2H-1,4-benzoxazin-6-yl)-3-[(4R)-8-(trifluoromethyl)-3,4-dihydro-2H-chromen-4-yl]urea] | 200 nM | 103%
14 | O=C1COc2ccc(NC(=O)N[C@@H]3CCOc4cc(C(F)(F)F)ccc43)cc2N1 [Example 121, 1-(3-oxo-3,4-dihydro-2H-1,4-benzoxazin-6-yl)-3-[(4R)-7-(trifluoromethyl)-3,4-dihydro-2H-chromen-4-yl]urea] | > 38000 nM | 107%
15 | O=C1COc2ccc(NC(=O)N[C@H]3CC4(CCC4)Oc4ccc(F)cc43)cc2N1 [Example 122, 1-[(4S)-6-fluoro-3,4-dihydrospiro[chromene-2,1′-cyclobutan]-4-yl]-3-(3-oxo-3,4-dihydro-2H-1,4-benzoxazin-6-yl)urea] | > 38000 nM | 104%
16 | CC1(C)C[C@H](NC(=O)Nc2ccc3c(c2)NC(=O)CO3)c2cc(F)ccc2O1 [Example 123, 1-[(4S)-6-fluoro-2,2-dimethyl-3,4-dihydro-2H-chromen-4-yl]-3-(3-oxo-3,4-dihydro-2H-1,4-benzoxazin-6-yl)urea] | > 38000 nM | 94%
17 | O=C1COc2ccc(NC(=O)N[C@@H]3CC4(CCCC4)Oc4ccccc43)cc2N1 [Example 124, 1-[(4R)-3,4-dihydrospiro[chromene-2,1′-cyclopentan]-4-yl]-3-(3-oxo-3,4-dihydro-2H-1,4-benzoxazin-6-yl)urea] | 1600 nM | 97%
18 | C[C@@]1(C(F)(F)F)C[C@@H](NC(=O)Nc2ccc3c(c2)NC(=O)CO3)c2ccccc2O1 [Example 125, 1-[(2S,4R)-2-methyl-2-(trifluoromethyl)-3,4-dihydro-2H-chromen-4-yl]-3-(3-oxo-3,4-dihydro-2H-1,4-benzoxazin-6-yl)urea] | 330 nM | 96%
19 | C[C@]1(C(F)(F)F)C[C@@H](NC(=O)Nc2ccc3c(c2)NC(=O)CO3)c2ccccc2O1 [Example 126, 1-[(2R,4R)-2-methyl-2-(trifluoromethyl)-3,4-dihydro-2H-chromen-4-yl]-3-(3-oxo-3,4-dihydro-2H-1,4-benzoxazin-6-yl)urea] | 58 nM | 87%

Second part, the compound after the results:

Row | IC50 [1] | human TRPV1 H^+ (max % remain) [2] | Structure (SMILES)
20 | 110 nM | 75% | CCC1(CC)C[C@@H](NC(=O)Nc2ccc3c(c2)NC(=O)CO3)c2ccc(C(F)(F)F)cc2O1 [Example 103, 1-[(4R)-2,2-diethyl-7-(trifluoromethyl)-3,4-dihydro-2H-chromen-4-yl]-3-(3-oxo-3,4-dihydro-2H-1,4-benzoxazin-6-yl)urea]
21 | 200 nM | 80% | CCC1(CC)C[C@@H](NC(=O)Nc2ccc3c(c2)NC(=O)CO3)c2ccc(Cl)cc2O1 [Example 104, 1-[(4R)-7-chloro-2,2-diethyl-3,4-dihydro-2H-chromen-4-yl]-3-(3-oxo-3,4-dihydro-2H-1,4-benzoxazin-6-yl)urea]
22 | 460 nM | 79% | CCC1(CC)C[C@@H](NC(=O)Nc2ccc3c(c2)NC(=O)CO3)c2ccc(Cl)c(Cl)c2O1 [Example 105, 1-[(4R)-7,8-dichloro-2,2-diethyl-3,4-dihydro-2H-chromen-4-yl]-3-(3-oxo-3,4-dihydro-2H-1,4-benzoxazin-6-yl)urea]
23 | 150 nM | 111% | CCCC1(CCC)C[C@@H](NC(=O)Nc2ccc3c(c2)NC(=O)CO3)c2cccc(F)c2O1 [Example 110, 1-[(4R)-8-fluoro-2,2-dipropyl-3,4-dihydro-2H-chromen-4-yl]-3-(3-oxo-3,4-dihydro-2H-1,4-benzoxazin-6-yl)urea]
24 | 2000 nM | 99% | O=C1COc2ccc(NC(=O)N[C@@H]3CC(CF)(CF)Oc4c(F)cccc43)cc2N1 [Example 116, 1-[(4R)-8-fluoro-2,2-bis(fluoromethyl)-3,4-dihydro-2H-chromen-4-yl]-3-(3-oxo-3,4-dihydro-2H-1,4-benzoxazin-6-yl)urea]
25 | 120 nM | 99% | CC1(C)C[C@@H](NC(=O)Nc2ccc3c(c2)NC(=O)CO3)c2ccc(F)c(F)c2O1 [Example 117, 1-[(4R)-7,8-difluoro-2,2-dimethyl-3,4-dihydro-2H-chromen-4-yl]-3-(3-oxo-3,4-dihydro-2H-1,4-benzoxazin-6-yl)urea]
26 | 67 nM | 100% | C[C@@]1(CF)C[C@@H](NC(=O)Nc2ccc3c(c2)NC(=O)CO3)c2ccc(C(F)(F)F)cc2O1 [Example 127, 1-[(2S,4R)-2-(fluoromethyl)-2-methyl-7-(trifluoromethyl)-3,4-dihydro-2H-chromen-4-yl]-3-(3-oxo-3,4-dihydro-2H-1,4-benzoxazin-6-yl)urea]
27 | 34 nM | 99% | C[C@]1(CF)C[C@@H](NC(=O)Nc2ccc3c(c2)NC(=O)CO3)c2ccc(C(F)(F)F)cc2O1 [Example 128, 1-[(2R,4R)-2-(fluoromethyl)-2-methyl-7-(trifluoromethyl)-3,4-dihydro-2H-chromen-4-yl]-3-(3-oxo-3,4-dihydro-2H-1,4-benzoxazin-6-yl)urea]
28 | 120 nM | 97% | C[C@@]1(CF)C[C@@H](NC(=O)Nc2ccc3c(c2)NC(=O)CO3)c2ccc(Cl)cc2O1 [Example 129, 1-[(2S,4R)-7-chloro-2-(fluoromethyl)-2-methyl-3,4-dihydro-2H-chromen-4-yl]-3-(3-oxo-3,4-dihydro-2H-1,4-benzoxazin-6-yl)urea]
